Data reported in ChEMBL document CHEMBL1137802, “Specific antioxidant activity of caffeoyl derivatives and other natural phenolic compounds: LDL protection against oxidation and decrease in the proinflammatory lysophosphatidylcholine production” (J Nat Prod, 2001).

How the values were obtained:
Format in all cases: functional, cell-free
[1] = Antioxidant activity against Cu2+-induced lipid peroxidation in human plasma LDL assessed as vitamin E consumption at 5 umol/L preincubated for 1 hr before Cu2+ challenge measured after 30 mins
[2] = Antioxidant activity against Cu2+-induced lipid peroxidation in human plasma LDL assessed as lysophosphatidylcholine formation at 10 umol/L preincubated for 1 hr before Cu2+ challenge measured after 180 mins
[3] = Antioxidant activity against Cu2+-induced lipid peroxidation in human plasma LDL assessed as maximal compound concentration at 20 umol/L preincubated for 1 hr before Cu2+ challenge measured after 90 mins relative to compound present at 0 min
[4] = Antioxidant activity against Cu2+-induced lipid peroxidation in human plasma LDL assessed as vitamin E consumption at 20 umol/L preincubated for 1 hr before Cu2+ challenge measured after 90 mins
[5] = Antioxidant activity against Cu2+-induced lipid peroxidation in human plasma LDL assessed as maximal compound concentration at 5 umol/L preincubated for 1 hr before Cu2+ challenge measured after 180 mins relative to compound present at 0 min
[6] = Antioxidant activity against Cu2+-induced lipid peroxidation in human plasma LDL assessed as maximal compound concentration at 20 umol/L preincubated for 1 hr before Cu2+ challenge measured after 30 mins relative to compound present at 0 min
[7] = Antioxidant activity against Cu2+-induced lipid peroxidation in human plasma LDL assessed as lysophosphatidylcholine formation at 10 umol/L preincubated for 1 hr before Cu2+ challenge measured after 120 mins
[8] = Antioxidant activity against Cu2+-induced lipid peroxidation in human plasma LDL assessed as lysophosphatidylcholine formation at 10 umol/L preincubated for 1 hr before Cu2+ challenge measured after 150 mins
[9] = Antioxidant activity against Cu2+-induced lipid peroxidation in human plasma LDL assessed as maximal compound concentration at 5 umol/L preincubated for 1 hr before Cu2+ challenge measured after 120 mins relative to compound present at 0 min
[10] = Antioxidant activity against Cu2+-induced lipid peroxidation in human plasma LDL assessed as vitamin E consumption at 5 umol/L preincubated for 1 hr before Cu2+ challenge measured after 45 mins
[11] = Antioxidant activity against Cu2+-induced lipid peroxidation in human plasma LDL assessed as vitamin E consumption at 5 umol/L preincubated for 1 hr before Cu2+ challenge measured after 270 mins
[12] = Antioxidant activity against Cu2+-induced lipid peroxidation in human plasma LDL assessed as vitamin E consumption at 20 umol/L preincubated for 1 hr before Cu2+ challenge measured after 30 mins
[13] = Antioxidant activity against Cu2+-induced lipid peroxidation in human plasma LDL assessed as conjugated diene formation at 10 umol/L preincubated for 1 hr before Cu2+ challenge measured after 60 mins
[14] = Antioxidant activity against Cu2+-induced lipid peroxidation in human plasma LDL assessed as vitamin E consumption at 20 umol/L preincubated for 1 hr before Cu2+ challenge measured after 15 mins
[15] = Antioxidant activity against Cu2+-induced lipid peroxidation in human plasma LDL assessed as lysophosphatidylcholine formation at 5 umol/L preincubated for 1 hr before Cu2+ challenge measured after 150 mins
[16] = Antioxidant activity against Cu2+-induced lipid peroxidation in human plasma LDL assessed as maximal compound concentration at 10 umol/L preincubated for 1 hr before Cu2+ challenge measured after 150 mins relative to compound present at 0 min
[17] = Antioxidant activity against Cu2+-induced lipid peroxidation in human plasma LDL assessed as vitamin E consumption at 5 umol/L preincubated for 1 hr before Cu2+ challenge measured after 210 mins
[18] = Antioxidant activity against Cu2+-induced lipid peroxidation in human plasma LDL assessed as lysophosphatidylcholine formation at 10 umol/L preincubated for 1 hr before Cu2+ challenge measured after 90 mins
[19] = Antioxidant activity against Cu2+-induced lipid peroxidation in human plasma LDL assessed as vitamin E consumption at 10 umol/L preincubated for 1 hr before Cu2+ challenge measured after 30 mins
[20] = Antioxidant activity against Cu2+-induced lipid peroxidation in human plasma LDL assessed as lysophosphatidylcholine formation at 5 umol/L preincubated for 1 hr before Cu2+ challenge measured after 210 mins
[21] = Antioxidant activity against Cu2+-induced lipid peroxidation in human plasma LDL assessed as conjugated diene formation at 5 umol/L preincubated for 1 hr before Cu2+ challenge measured after 270 mins
[22] = Antioxidant activity against Cu2+-induced lipid peroxidation in human plasma LDL assessed as conjugated diene formation at 5 umol/L preincubated for 1 hr before Cu2+ challenge measured after 210 mins
[23] = Antioxidant activity against Cu2+-induced lipid peroxidation in human plasma LDL assessed as lysophosphatidylcholine formation at 10 umol/L preincubated for 1 hr before Cu2+ challenge measured after 210 mins
[24] = Antioxidant activity against Cu2+-induced lipid peroxidation in human plasma LDL assessed as maximal compound concentration at 20 umol/L preincubated for 1 hr before Cu2+ challenge measured after 120 mins relative to compound present at 0 min
[25] = Antioxidant activity against Cu2+-induced lipid peroxidation in human plasma LDL assessed as lysophosphatidylcholine formation at 5 umol/L preincubated for 1 hr before Cu2+ challenge measured after 180 mins
[26] = Antioxidant activity against Cu2+-induced lipid peroxidation in human plasma LDL assessed as lysophosphatidylcholine formation at 20 umol/L preincubated for 1 hr before Cu2+ challenge measured after 210 mins
[27] = Antioxidant activity against Cu2+-induced lipid peroxidation in human plasma LDL assessed as maximal compound concentration at 5 umol/L preincubated for 1 hr before Cu2+ challenge measured after 210 mins relative to compound present at 0 min
[28] = Antioxidant activity against Cu2+-induced lipid peroxidation in human plasma LDL assessed as vitamin E consumption at 5 umol/L preincubated for 1 hr before Cu2+ challenge measured after 120 mins
[29] = Antioxidant activity against Cu2+-induced lipid peroxidation in human plasma LDL assessed as lysophosphatidylcholine formation preincubated for 1 hr before Cu2+ challenge
[30] = Antioxidant activity against Cu2+-induced lipid peroxidation in human plasma LDL assessed as conjugated diene formation at 10 umol/L preincubated for 1 hr before Cu2+ challenge measured after 120 mins
[31] = Antioxidant activity against Cu2+-induced lipid peroxidation in human plasma LDL assessed as conjugated diene formation at 20 umol/L preincubated for 1 hr before Cu2+ challenge measured after 150 mins
[32] = Antioxidant activity against Cu2+-induced lipid peroxidation in human plasma LDL assessed as lysophosphatidylcholine formation at 5 umol/L preincubated for 1 hr before Cu2+ challenge measured after 90 mins
[33] = Antioxidant activity against Cu2+-induced lipid peroxidation in human plasma LDL assessed as lysophosphatidylcholine formation at 5 umol/L preincubated for 1 hr before Cu2+ challenge measured after 120 mins
[34] = Antioxidant activity against Cu2+-induced lipid peroxidation in human plasma LDL assessed as vitamin E consumption at 20 umol/L preincubated for 1 hr before Cu2+ challenge measured after 270 mins

CC(C)(Sc1cc(C(C)(C)C)c(O)c(C(C)(C)C)c1)Sc1cc(C(C)(C)C)c(O)c(C(C)(C)C)c1
Activity [1]: 15.5% | Activity [2]: 6.2% | Activity [3]: 44.1% | Activity [4]: 0% | Activity [5]: 45.3% | Activity [6]: 91.8% | Activity [7]: 1.3% | Activity [8]: 3% | Activity [9]: 56.5% | Activity [10]: 7.5% | Activity [11]: 0% | Activity [12]: 19.9% | Activity [13]: 0.6% | Activity [14]: 38.2% | Activity [15]: 17.5% | Activity [16]: 19.8% | Activity [17]: 0% | Activity [18]: 0% | Activity [19]: 17.8% | Activity [20]: 23.1% | Activity [21]: 87.1% | Activity [22]: 80.8% | Activity [23]: 9.1% | Activity [24]: 43.2% | Activity [25]: 19.4% | Activity [26]: 1.4% | Activity [27]: 36.8% | Activity [28]: 0% | Activity [29]: Dose-dependent effect | Activity [30]: 39.4% | Activity [31]: 1.1% | Activity [32]: 4.1% | Activity [33]: 10.6% | Activity [34]: 0%
